The results in this text go back to patent EP4685149A1, “NOVEL COMPOUND AS ENDOTHELIAL TO MESENCHYMAL TRANSITION (ENDMT) INHIBITOR, AND PHARMACEUTICAL COMPOSITION COMPRISING SAME” (Korea Institute of Radiological & Medical Sciences, priority 2023, dated 2024).

Read-outs that look alike come from different tables or passages of the source. Bounds are passed on as bounds.

For this assay, the system named is human vascular endothelial cell lines. Description: Inhibition of radiation-induced endothelial cell transition (EndMT), phalloidin immunofluorescence staining. In kind it is cell-based. Conditions: 10 uM test substance 1 hour before 10 Gy irradiation, 72 hours after irradiation, relative ratio with IR group (10 Gy alone) as 100%; for activity at 10 µM: Homo sapiens, Endothelial cell, light or radiation study. On the procedure: Test substances (Examples 1 to 45) were treated with a 10 mM DMSO solution at a ratio of 1 µL per 1 mL of cell culture medium to a final concentration of 10 uM, and the test substances were treated 1 hour before irradiation on human vascular endothelial cell lines (Promocell, Germany), and then, it was irradiated at an intensity of 10 Gy. 72 hours after irradiation, the human vascular endothelial cell lines were fixed with 10% formalin, and the experiment was conducted according to the manufacturer's method using phalloidin (Invitrogen, USA) to confirm the cytoskeleton filaments that increase during fibrosis. Phalloidin is a protein that binds to the actin of cytoskeleton filaments, and phalloidin conjugated with FITC fluorescent substance made the cytoskeleton filaments appear green when observed under a microscope.
After treatment with the test substance, the area, length and density of phalloidin were measured by using a confocal microscope, and the relative ratio was expressed with the irradiated group (IR group) that was irradiated with 10 Gy alone as 100% (Table 1).

Consider `CC#Cc1nc(N[C@@H]2CCc3ccccc32)c2ncn([C@@H]3SC[C@@H](O)[C@H]3O)c2n1` [Example 1, (2R,3R,4S)-2-[6-[[(1R)-indan-1-yl]amino]-2-prop-1-ynyl-purin-9-yl]tetrahydrothiophene-3,4-diol], for which the activity at 10 µM is, setting by setting: (read-out: Palloidin Area) 50 to 80%; (read-out: Palloidin Intensity) 50 to 80%; (read-out: Palloidin Length) more than 80%.
With `CC#Cc1nc(N[C@H]2CCc3ccccc32)c2ncn([C@@H]3SC[C@@H](O)[C@H]3O)c2n1` [Example 2, (2R,3R,4S)-2-[6-[[(1S)-indan-1-yl]amino]-2-prop-1-ynyl-purin-9-yl]tetrahydrothiophene-3,4-diol], the activity at 10 µM is more than 80% (read-out: Palloidin Area), more than 80% (read-out: Palloidin Intensity) and more than 80% (read-out: Palloidin Length).
Turning to `CCC#Cc1nc(N[C@@H]2CCc3ccccc32)c2ncn([C@@H]3SC[C@@H](O)[C@H]3O)c2n1` [Example 3, (2R,3R,4S)-2-[2-but-1-ynyl-6-[[(1R)-indan-1-yl]amino]purin-9-yl]tetrahydrothiophene-3,4-diol], the activity at 10 µM is more than 80% (read-out: Palloidin Area), more than 80% (read-out: Palloidin Intensity) and more than 80% (read-out: Palloidin Length).
`CCC#Cc1nc(N[C@H]2CCc3ccccc32)c2ncn([C@@H]3SC[C@@H](O)[C@H]3O)c2n1` [Example 4, (2R,3R,4S)-2-[2-but-1-ynyl-6-[[(1S)-indan-1-yl]amino]purin-9-yl]tetrahydrothiophene-3,4-diol]: the activity at 10 µM was 50 to 80% (read-out: Palloidin Area), 50 to 80% (read-out: Palloidin Intensity) and 50 to 80% (read-out: Palloidin Length).
For `CCCC#Cc1nc(N[C@@H]2CCc3ccccc32)c2ncn([C@@H]3SC[C@@H](O)[C@H]3O)c2n1` [Example 5, (2R,3R,4S)-2-[6-[[(1R)-indan-1-yl]amino]-2-pent-1-ynyl-purin-9-yl]tetrahydrothiophene-3,4-diol], the activity at 10 µM fell in the range of 50 to 80% (read-out: Palloidin Area), 50 to 80% (read-out: Palloidin Intensity) and 50 to 80% (read-out: Palloidin Length).
With `CCCC#Cc1nc(N[C@H]2CCc3ccccc32)c2ncn([C@@H]3SC[C@@H](O)[C@H]3O)c2n1` [Example 6, (2R,3R,4S)-2-[6-[[(1S)-indan-1-yl]amino]-2-pent-1-ynyl-purin-9-yl]tetrahydrothiophene-3,4-diol], the “Palloidin Length” value is reported as “++^+”. The activity at 10 µM (read-out: Palloidin Area) lay within 20 to 50%. Also, under “read-out: Palloidin Intensity”, the activity at 10 µM fell in the range of 20 to 50%.
Consider `O[C@@H]1[C@H](O)CS[C@H]1n1cnc2c(NC3Cc4ccccc4C3)nc(Cl)nc21` [Example 7, (2R,3R,4S)-2-[2-chloro-6-(indan-2-ylamino)purin-9-yl]tetrahydrothiophene-3,4-diol], for which the activity at 10 µM by setting is: (read-out: Palloidin Area) more than 80%; (read-out: Palloidin Intensity) more than 80%; (read-out: Palloidin Length) more than 80%.
Take `O[C@@H]1[C@H](O)CS[C@H]1n1cnc2c(NC3CCc4ccccc43)nc(Cl)nc21` (stereo partly drawn) [Example 8, (2R,3R,4S)-2-[2-chloro-6-(indan-1-ylamino)purin-9-yl]tetrahydrothiophene-3,4-diol]: the activity at 10 µM reads like this: (read-out: Palloidin Area) 20 to 50%; (read-out: Palloidin Intensity) 20 to 50%; (read-out: Palloidin Length) 20 to 50%.
For `O[C@@H]1[C@H](O)CS[C@H]1n1cnc2c(N[C@@H]3CCc4ccccc43)nc(Cl)nc21` [Example 9, (2R,3R,4S)-2-[2-chloro-6-[[(1R)-indan-1-yl]amino]purin-9-yl]tetrahydrothiophene-3,4-diol], the activity at 10 µM by setting is: (read-out: Palloidin Area) 50 to 80%; (read-out: Palloidin Intensity) 50 to 80%; (read-out: Palloidin Length) 50 to 80%.
In the case of `O[C@@H]1[C@H](O)CS[C@H]1n1cnc2c(N[C@H]3CCc4ccccc43)nc(Cl)nc21` [Example 10, (2R,3R,4S)-2-[2-chloro-6-[[(1S)-indan-1-yl]amino]purin-9-yl]tetrahydrothiophene-3,4-diol], the activity at 10 µM reads like this: (read-out: Palloidin Area) more than 80%; (read-out: Palloidin Intensity) more than 80%; (read-out: Palloidin Length) more than 80%.
Consider `COc1cccc2c1CC[C@H]2Nc1nc(Cl)nc2c1ncn2[C@@H]1SC[C@@H](O)[C@H]1O` [Example 11, (2R,3R,4S)-2-[2-chloro-6-[[(1R)-4-methoxyindan-1-yl]amino]purin-9-yl]tetrahydrothiophene-3,4-diol], for which the activity at 10 µM (read-out: Palloidin Area) fell in the range of 20 to 50%, the activity at 10 µM (read-out: Palloidin Intensity) was 20 to 50% and the activity at 10 µM (read-out: Palloidin Length) fell in the range of 20 to 50%.
For `COc1ccc2c(c1)CC[C@H]2Nc1nc(Cl)nc2c1ncn2[C@@H]1SC[C@@H](O)[C@H]1O` [Example 12, (2R,3R,4S)-2-[2-chloro-6-[[(1R)-5-methoxyindan-1-yl]amino]purin-9-yl]tetrahydrothiophene-3,4-diol], the activity at 10 µM was more than 80% (read-out: Palloidin Area), more than 80% (read-out: Palloidin Intensity) and more than 80% (read-out: Palloidin Length).
Turning to `COc1ccc2c(c1)[C@H](Nc1nc(Cl)nc3c1ncn3[C@@H]1SC[C@@H](O)[C@H]1O)CC2` [Example 13, (2R,3R,4S)-2-[2-chloro-6-[[(1R)-6-methoxyindan-1-yl]amino]purin-9-yl]tetrahydrothiophene-3,4-diol], the activity at 10 µM was in the range of 50 to 80% (read-out: Palloidin Area), 50 to 80% (read-out: Palloidin Intensity) and 50 to 80% (read-out: Palloidin Length).
Regarding `COc1cccc2c1[C@H](Nc1nc(Cl)nc3c1ncn3[C@@H]1SC[C@@H](O)[C@H]1O)CC2` [Example 14, (2R,3R,4S)-2-[2-chloro-6-[[(1R)-7-methoxyindan-1-yl]amino]purin-9-yl]tetrahydrothiophene-3,4-diol], the activity at 10 µM was 50 to 80% (read-out: Palloidin Area), 50 to 80% (read-out: Palloidin Intensity) and 50 to 80% (read-out: Palloidin Length).
Consider `O[C@@H]1[C@H](O)CS[C@H]1n1cnc2c(N[C@@H]3CCc4c(F)cccc43)nc(Cl)nc21` [Example 15, (2R,3R,4S)-2-[2-chloro-6-[[(1R)-4-fluoroindan-1-yl]amino]purin-9-yl]tetrahydrothiophene-3,4-diol], for which the activity at 10 µM (read-out: Palloidin Area) is less than 20%, the activity at 10 µM (read-out: Palloidin Intensity) was less than 20% and the activity at 10 µM (read-out: Palloidin Length) was less than 20%.
In the case of `O[C@@H]1[C@H](O)CS[C@H]1n1cnc2c(N[C@@H]3CCc4cc(F)ccc43)nc(Cl)nc21` [Example 16, (2R,3R,4S)-2-[2-chloro-6-[[(1R)-5-fluoroindan-1-yl]amino]purin-9-yl]tetrahydrothiophene-3,4-diol], the activity at 10 µM is, setting by setting: (read-out: Palloidin Area) less than 20%; (read-out: Palloidin Intensity) less than 20%; (read-out: Palloidin Length) less than 20%.
On to `O[C@@H]1[C@H](O)CS[C@H]1n1cnc2c(N[C@@H]3CCc4c(Cl)cccc43)nc(Cl)nc21` [Example 17, (2R,3R,4S)-2-[2-chloro-6-[[(1R)-4-chloroindan-1-yl]amino]purin-9-yl]tetrahydrothiophene-3,4-diol], for which the activity at 10 µM by setting is: (read-out: Palloidin Area) less than 20%; (read-out: Palloidin Intensity) less than 20%; (read-out: Palloidin Length) less than 20%.
As to `O[C@@H]1[C@H](O)CS[C@H]1n1cnc2c(N[C@@H]3CCc4cc(Cl)ccc43)nc(Cl)nc21` [Example 18, (2R,3R,4S)-2-[2-chloro-6-[[(1R)-5-chloroindan-1-yl]amino]purin-9-yl]tetrahydrothiophene-3,4-diol], the activity at 10 µM was less than 20% (read-out: Palloidin Area), less than 20% (read-out: Palloidin Intensity) and less than 20% (read-out: Palloidin Length).
Take `O[C@@H]1[C@H](O)CS[C@H]1n1cnc2c(N[C@@H]3CCc4c(Br)cccc43)nc(Cl)nc21` [Example 19, (2R,3R,4S)-2-[2-chloro-6-[[(1R)-4-bromoindan-1-yl]amino]purin-9-yl]tetrahydrothiophene-3,4-diol]: the activity at 10 µM reads like this: (read-out: Palloidin Area) 20 to 50%; (read-out: Palloidin Intensity) 20 to 50%; (read-out: Palloidin Length) 20 to 50%.
As for `O[C@@H]1[C@H](O)CS[C@H]1n1cnc2c(N[C@@H]3CCc4cc(Br)ccc43)nc(Cl)nc21` [Example 20, (2R,3R,4S)-2-[2-chloro-6-[[(1R)-5-bromoindan-1-yl]amino]purin-9-yl]tetrahydrothiophene-3,4-diol], the activity at 10 µM was less than 20% (read-out: Palloidin Area), 20 to 50% (read-out: Palloidin Intensity) and less than 20% (read-out: Palloidin Length).
Take `O[C@@H]1[C@H](O)CS[C@H]1n1cnc2c(N[C@@H]3CCc4ccc(Br)cc43)nc(Cl)nc21` [Example 21, (2R,3R,4S)-2-[2-chloro-6-[[(1R)-6-bromoindan-1-yl]amino]purin-9-yl]tetrahydrothiophene-3,4-diol]: the activity at 10 µM runs as follows: (read-out: Palloidin Area) 20 to 50%; (read-out: Palloidin Intensity) 20 to 50%; (read-out: Palloidin Length) 20 to 50%.
Regarding `Cc1cccc2c1CC[C@H]2Nc1nc(Cl)nc2c1ncn2[C@@H]1SC[C@@H](O)[C@H]1O` [Example 22, (2R,3R,4S)-2-[2-chloro-6-[[(1R)-4-methylindan-1-yl]amino]purin-9-yl]tetrahydrothiophene-3,4-diol], the “Palloidin Length” value is “+ + + +”. Moreover, the activity at 10 µM (read-out: Palloidin Area) is less than 20%. Besides, under “read-out: Palloidin Intensity”, the activity at 10 µM was less than 20%.
Take `O[C@@H]1[C@H](O)CS[C@H]1n1cnc2c(N[C@@H]3CCc4c3cccc4C(F)(F)F)nc(Cl)nc21` [Example 23, (2R,3R,4S)-2-[2-chloro-6-[[(1R)-4-(trifluoromethyl)indan-1-yl]amino]purin-9-yl]tetrahydrothiophene-3,4-diol]: the activity at 10 µM (read-out: Palloidin Area) was more than 80%, the activity at 10 µM (read-out: Palloidin Intensity) is more than 80% and the activity at 10 µM (read-out: Palloidin Length) was more than 80%.
